Legend:
[1] = system: 32P-labeled SNCA IRE hairpin RNA; assay: RNase H-mediated ASO-Bind-Map; type: binding, human
Description: RNase H-mediated ASO-Bind-Map. SNCA IRE hairpin RNA was 5′-end labeled with [γ-^32P]ATP and T4 kinase as previously described^5. Approximately, 5 pmoles of ^32P labeled IRE RNA per reaction was folded in 1× RNase H buffer (New England Biolabs) by heating to 65° C. for 5 min and slowly cooling to room temperature. Serially diluted concentrations of Synucleozid were added to the RNA solutions and incubated at room temperature for 30 min. One of ASOs was then added to a final concentration of 500 nM, followed by incubation at room temperature for 30 min. Next, 0.05 U/μL RNase H (New England Biolabs) was added into each RNA-ligand mixture, and the samples were incubated for 20 min. Reactions were quenched by incubating at 65° C. for 20 min. T
Two ladders were generated to identify the positions of RNase H cleavage. Each guanosine (G) residue was identified by using RNase T1 under denaturing conditions as described above. Likewise, a hydrolysis ladder was generated as described above. Reactions were stopped by addition of an equal volume of 2× Loading Buffer. Fragments were separated on a denaturing 15% polyacrylamide gel and imaged using a BioRad PMI phosphorimager. Images were quantified with BioRad's QuantityOne software.

SNCA mRNA = assay: Polysome profiling; type: cell-based, human; settings: 1 μM, 48 h
Description: Polysome profiling. Polysome profiling studies were completed similarly to previously described methods (9, 10). SH-SY5Y cells were treated with DMSO vehicle or Synucleozid (1 μM) at 50% confluency. After 48 h, 100 μg/mL (final concentration) cycloheximide (CHX) was added to dishes, and cells were incubated at 37° C. for 10 min. After two times washing with ice-cold 1×DPBS supplemented with 100 μg/mL CHX, cells were scraped with ice-cold 300 μL 1×DPBS supplemented with 100 μg/mL CHX. Three 100 mm dishes of cells were prepared and combined as one profiling sample. After centrifugation, cell pellets were lysed with 250 μL of ice-cold polysome extraction buffer [10 mM NaCl, 10 mM MgCl2, 10 mM Tris, pH 7.5, 1% Triton X-100, 1% sodium deoxycholate, 1 mM DTT supplemented with […] and 0.2 U/μL RNasin (Promega)]. The lysate was transferred to an ice-cold Eppendorf tube, gently vortexed and centrifuged for 15 min at 13,200 rpm, 4° C. The supernatant was layered onto 10 mL linear 10-50% sucrose gradients containing 20 mM HEPES (pH 7.4), 5 mM MgCl2, 100 mM KCl, […], and 100 µg/mL CHX. The sucrose gradients were centrifuged at 40,000 rpm for 2 h at 4° C. then fractionated using a fraction collector (Brandel Inc.). The absorbance of cytosolic RNA was recorded at 254 nm by an inline UV monitor. A 400 μL aliquot from each fraction was collected. Then, RNA extraction, cDNA synthesis and RT-qPCR were performed as described above.

In the case of `N=C(N)c1ccc(Nc2ccc(-c3cc4ccc(C(=N)N)cc4[nH]3)cc2)cc1` [Synucleozid A], the “protection from RNase H cleavage, ASOs hybridized with sites other than A bulge” value ([1]; 1 μM) is reported as “no protection from cleavage”, the “protection of the IRE from RNase H cleavage” value ([1]; 0.1, 1, and 10 μM, ASO (1-10) and ASO (40-50) overlap with the A bulge) is reported as “only observed with ASOs whose binding sites overlap with the A bulge” and the “association of ribosomes with a control RNA” value (SNCA mRNA) is reported as “does not affect”. The “decrease of SNCA mRNA associated with active polysomes” value (SNCA mRNA; SH-SY5Y cells) was roughly 20% and the “SNCA mRNA associated with incomplete ribosomes” value (SNCA mRNA; fractions 1-5) was “increase”.

Reference: patent US20230054976A1, “METHODS FOR INHIBITION OF ALPHA-SYNUCLEIN mRNA USING SMALL MOLECULES” (The Scripps Research Institute, priority 2019, published 2023)
